Measured values reported in PubChem BioAssay (NCI).
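Following 48 hours of exposure in 96-well plates, responses at five concentrations were used to interpolate endpoints linearly. GI50 marks 50% less growth. At the TGI there is no net growth.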

Columns and labels:
Assay in all cases: NCI-60 cell line screen, 48 h
OVCAR-5 ovarian = system: OVCAR-5 ovarian
CAKI-1 renal = system: CAKI-1 renal
SW-620 colon = system: SW-620 colon
SK-MEL-28 melanoma = system: SK-MEL-28 melanoma
MOLT-4 leukemia = system: MOLT-4 leukemia
SR leukemia = system: SR leukemia
OVCAR-4 ovarian = system: OVCAR-4 ovarian
DU-145 prostate = system: DU-145 prostate
HCC-2998 colon = system: HCC-2998 colon
SN12C renal = system: SN12C renal
786-0 renal = system: 786-0 renal
MDA-MB-231 breast = system: MDA-MB-231 breast
RXF 393 renal = system: RXF 393 renal
NCI/ADR-RES ovarian = system: NCI/ADR-RES ovarian
UACC-62 melanoma = system: UACC-62 melanoma
ACHN renal = system: ACHN renal
BT-549 breast = system: BT-549 breast
HS 578T breast = system: HS 578T breast
SNB-75 CNS = system: SNB-75 CNS
NCI-H226 lung = system: NCI-H226 lung
OVCAR-3 ovarian = system: OVCAR-3 ovarian
UACC-257 melanoma = system: UACC-257 melanoma
TK-10 renal = system: TK-10 renal
KM12 colon = system: KM12 colon
SK-MEL-2 melanoma = system: SK-MEL-2 melanoma
SK-MEL-5 melanoma = system: SK-MEL-5 melanoma
SF-268 CNS = system: SF-268 CNS
U251 CNS = system: U251 CNS
MDA-MB-435 = system: MDA-MB-435
HCT-116 colon = system: HCT-116 colon
SK-OV-3 ovarian = system: SK-OV-3 ovarian
EKVX NSCLC = system: EKVX NSCLC
SF-539 CNS = system: SF-539 CNS
LOX IMVI melanoma = system: LOX IMVI melanoma
HT29 colon = system: HT29 colon
MALME-3M melanoma = system: MALME-3M melanoma
T-47D breast = system: T-47D breast
A498 renal = system: A498 renal
M14 melanoma = system: M14 melanoma
UO-31 renal = system: UO-31 renal
NCI-H460 lung = system: NCI-H460 lung
COLO 205 colon = system: COLO 205 colon
IGROV1 ovarian = system: IGROV1 ovarian
HOP-92 NSCLC = system: HOP-92 NSCLC
HL-60(TB) leukemia = system: HL-60(TB) leukemia
SNB-19 CNS = system: SNB-19 CNS
A549 NSCLC = system: A549 NSCLC
OVCAR-8 ovarian = system: OVCAR-8 ovarian
MCF7 breast = system: MCF7 breast
PC-3 prostate = system: PC-3 prostate
SF-295 CNS = system: SF-295 CNS
HOP-62 NSCLC = system: HOP-62 NSCLC
HCT-15 colon = system: HCT-15 colon
NCI-H522 lung = system: NCI-H522 lung
NCI-H23 lung = system: NCI-H23 lung
CCRF-CEM leukemia = system: CCRF-CEM leukemia
K-562 leukemia = system: K-562 leukemia
RPMI-8226 leukemia = system: RPMI-8226 leukemia

## C/C=C(/C(=C/C)c1ccc(O)cc1)c1ccc(O)cc1
OVCAR-5 ovarian
  GI50: 8.38 µM
  TGI: 23.2 µM
CAKI-1 renal
  GI50: 3.42 µM
  TGI: 16.9 µM
SW-620 colon
  GI50: 3.85 µM
  TGI: 14.9 µM
SK-MEL-28 melanoma
  GI50: 5.71 µM
  TGI: 21.1 µM
MOLT-4 leukemia
  GI50: 5.43 µM
  TGI: 24.2 µM
SR leukemia
  GI50: 4.24 µM
  TGI: 92.9 µM
OVCAR-4 ovarian
  GI50: 8.18 µM
  TGI: 33.6 µM
DU-145 prostate
  GI50: 3.35 µM
  TGI: 10.4 µM
HCC-2998 colon
  GI50: 8.64 µM
  TGI: 24 µM
SN12C renal
  GI50: 5.22 µM
  TGI: 22.9 µM
786-0 renal
  GI50: 5.54 µM
  TGI: 27 µM
MDA-MB-231 breast
  GI50: 4.58 µM
  TGI: 22.2 µM
RXF 393 renal
  GI50: 4.03 µM
  TGI: 17.7 µM
NCI/ADR-RES ovarian
  GI50: 2.81 µM
  TGI: 9.28 µM
UACC-62 melanoma
  GI50: 4.86 µM
  TGI: 18.7 µM
ACHN renal
  GI50: 9.64 µM
  TGI: 21.4 µM
BT-549 breast
  GI50: 7.39 µM
  TGI: 22.5 µM
HS 578T breast
  GI50: 4.3 µM
  TGI: 30.2 µM
SNB-75 CNS
  GI50: 1.9 µM
  TGI: 5.34 µM
NCI-H226 lung
  GI50: 9.36 µM
  TGI: 47 µM
OVCAR-3 ovarian
  GI50: 2.37 µM
  TGI: 5.38 µM
UACC-257 melanoma
  GI50: 9.4 µM
  TGI: 24.8 µM
TK-10 renal
  GI50: 12.8 µM
  TGI: 29.4 µM
KM12 colon
  GI50: 3.73 µM
  TGI: 13.6 µM
SK-MEL-2 melanoma
  GI50: 8.4 µM
  TGI: 30.7 µM
SK-MEL-5 melanoma
  GI50: 3.56 µM
  TGI: 15.2 µM
SF-268 CNS
  GI50: 6.32 µM
  TGI: 22.8 µM
U251 CNS
  GI50: 3.49 µM
  TGI: 15.9 µM
MDA-MB-435
  GI50: 1.19 µM
  TGI: 3.56 µM
HCT-116 colon
  GI50: 4.58 µM
  TGI: 16.2 µM
SK-OV-3 ovarian
  GI50: 2.54 µM
  TGI: 8.88 µM
EKVX NSCLC
  GI50: 7.38 µM
  TGI: 26.7 µM
SF-539 CNS
  GI50: 3.27 µM
  TGI: 13.8 µM
LOX IMVI melanoma
  GI50: 5.51 µM
  TGI: 24.3 µM
HT29 colon
  GI50: 3.71 µM
  TGI: 12.6 µM
MALME-3M melanoma
  GI50: 7.07 µM
  TGI: 31 µM
T-47D breast
  GI50: 5.11 µM
  TGI: 21.9 µM
A498 renal
  GI50: 6.22 µM
  TGI: 19.3 µM
M14 melanoma
  GI50: 3.33 µM
  TGI: 12.5 µM
UO-31 renal
  GI50: 5.34 µM
  TGI: 24.9 µM
NCI-H460 lung
  GI50: 3.44 µM
  TGI: 13.2 µM
COLO 205 colon
  GI50: 3.25 µM
  TGI: 10.5 µM
IGROV1 ovarian
  GI50: 5.41 µM
  TGI: 36.8 µM
HOP-92 NSCLC
  GI50: 3.98 µM
  TGI: 22.7 µM
HL-60(TB) leukemia
  GI50: 3.9 µM
  TGI: 25.1 µM
SNB-19 CNS
  GI50: 4.79 µM
  TGI: 21 µM
A549 NSCLC
  GI50: 4.04 µM
  TGI: 19 µM
OVCAR-8 ovarian
  GI50: 4.65 µM
  TGI: 25.4 µM
MCF7 breast
  GI50: 7.19 µM
  TGI: 26.1 µM
PC-3 prostate
  GI50: 4.51 µM
  TGI: 17.4 µM
SF-295 CNS
  GI50: 2.48 µM
  TGI: 8.11 µM
HOP-62 NSCLC
  GI50: 3.62 µM
  TGI: 16 µM
HCT-15 colon
  GI50: 5.47 µM
  TGI: 20.3 µM
NCI-H522 lung
  GI50: 3.63 µM
  TGI: 16.9 µM
NCI-H23 lung
  GI50: 5.3 µM
  TGI: 21.9 µM

## O=C(c1ccco1)N(Cc1cccnc1)C(=S)N(Cc1cccnc1)C(=O)c1ccco1
OVCAR-5 ovarian
  TGI: 46.9 µM
CAKI-1 renal
  TGI: 45.4 µM
SW-620 colon
  TGI: 36.5 µM
SK-MEL-28 melanoma
  TGI: 45.8 µM
MOLT-4 leukemia
  TGI: > 100 µM
SR leukemia
  TGI: > 100 µM
OVCAR-4 ovarian
  TGI: 50 µM
DU-145 prostate
  TGI: > 100 µM
HCC-2998 colon
  TGI: 31.8 µM
SN12C renal
  TGI: 24 µM
786-0 renal
  TGI: 11.8 µM
MDA-MB-231 breast
  TGI: 22.6 µM
RXF 393 renal
  TGI: 57.4 µM
NCI/ADR-RES ovarian
  TGI: > 100 µM
UACC-62 melanoma
  TGI: 29.7 µM
ACHN renal
  TGI: 30.7 µM
BT-549 breast
  TGI: 66.2 µM
HS 578T breast
  TGI: 56.4 µM
SNB-75 CNS
  TGI: 98.7 µM
NCI-H226 lung
  TGI: 47.9 µM
OVCAR-3 ovarian
  TGI: 23.4 µM
UACC-257 melanoma
  TGI: 31.7 µM
TK-10 renal
  TGI: 23.3 µM
KM12 colon
  TGI: 23.4 µM
SK-MEL-2 melanoma
  TGI: 28.1 µM
SK-MEL-5 melanoma
  TGI: 29.1 µM
SF-268 CNS
  TGI: 43.6 µM
U251 CNS
  TGI: 31.4 µM
CCRF-CEM leukemia
  TGI: 14.5 µM
MDA-MB-435
  TGI: 38.7 µM
K-562 leukemia
  TGI: > 100 µM
HCT-116 colon
  TGI: 20.6 µM
SK-OV-3 ovarian
  TGI: 83.8 µM
EKVX NSCLC
  TGI: 35.8 µM
SF-539 CNS
  TGI: 26.7 µM
LOX IMVI melanoma
  TGI: 27.8 µM
HT29 colon
  TGI: 44.3 µM
MALME-3M melanoma
  TGI: 32.7 µM
T-47D breast
  TGI: 63.2 µM
A498 renal
  TGI: 62.7 µM
M14 melanoma
  TGI: 27 µM
UO-31 renal
  TGI: 28.8 µM
NCI-H460 lung
  TGI: 55.6 µM
COLO 205 colon
  TGI: 16.3 µM
HOP-92 NSCLC
  TGI: 38.7 µM
HL-60(TB) leukemia
  TGI: 49 µM
SNB-19 CNS
  TGI: 83.5 µM
A549 NSCLC
  TGI: 38.8 µM
OVCAR-8 ovarian
  TGI: 66 µM
MCF7 breast
  TGI: 14.7 µM
PC-3 prostate
  TGI: 19.7 µM
SF-295 CNS
  TGI: 77.1 µM
HOP-62 NSCLC
  TGI: 44.1 µM
HCT-15 colon
  TGI: 77.7 µM
NCI-H522 lung
  TGI: 29.9 µM
NCI-H23 lung
  TGI: 61.6 µM

## CN1CN(c2ccccc2)C2(CCN(Cc3nc4ccccc4s3)CC2)C1=O
OVCAR-5 ovarian
  TGI: 34.1 µM
CAKI-1 renal
  TGI: 49.6 µM
SK-MEL-28 melanoma
  TGI: 31.5 µM
MOLT-4 leukemia
  TGI: 34.3 µM
SR leukemia
  TGI: 33.9 µM
OVCAR-4 ovarian
  TGI: 38 µM
DU-145 prostate
  TGI: 38.3 µM
SN12C renal
  TGI: 31.7 µM
786-0 renal
  TGI: 31.3 µM
MDA-MB-231 breast
  TGI: 27.2 µM
RXF 393 renal
  TGI: 29.9 µM
NCI/ADR-RES ovarian
  TGI: 33.5 µM
UACC-62 melanoma
  TGI: 30.1 µM
ACHN renal
  TGI: 39.8 µM
BT-549 breast
  TGI: 30.3 µM
HS 578T breast
  TGI: 41.8 µM
SNB-75 CNS
  TGI: 32.6 µM
NCI-H226 lung
  TGI: 36.2 µM
OVCAR-3 ovarian
  TGI: 32.4 µM
UACC-257 melanoma
  TGI: 30.4 µM
TK-10 renal
  TGI: 34.9 µM
SK-MEL-2 melanoma
  TGI: 34.1 µM
SK-MEL-5 melanoma
  TGI: 29.6 µM
SF-268 CNS
  TGI: 44.3 µM
U251 CNS
  TGI: 30 µM
CCRF-CEM leukemia
  TGI: 41.6 µM
MDA-MB-435
  TGI: 32.3 µM
K-562 leukemia
  TGI: 32.4 µM
HCT-116 colon
  TGI: 28.1 µM
SK-OV-3 ovarian
  TGI: 52.7 µM
EKVX NSCLC
  TGI: 48.3 µM
SF-539 CNS
  TGI: 32.4 µM
LOX IMVI melanoma
  TGI: 34.9 µM
HT29 colon
  TGI: 30.7 µM
MALME-3M melanoma
  TGI: 31.8 µM
T-47D breast
  TGI: 32 µM
A498 renal
  TGI: 30.7 µM
M14 melanoma
  TGI: 26.3 µM
UO-31 renal
  TGI: 29 µM
COLO 205 colon
  TGI: 32.1 µM
IGROV1 ovarian
  TGI: 30.4 µM
HOP-92 NSCLC
  TGI: 28.5 µM
RPMI-8226 leukemia
  TGI: 36.2 µM
HL-60(TB) leukemia
  TGI: 29.1 µM
SNB-19 CNS
  TGI: 28.6 µM
A549 NSCLC
  TGI: 33.4 µM
OVCAR-8 ovarian
  TGI: 28.8 µM
MCF7 breast
  TGI: 29.5 µM
PC-3 prostate
  TGI: 28.8 µM
SF-295 CNS
  TGI: 32 µM
HOP-62 NSCLC
  TGI: 30.7 µM
HCT-15 colon
  TGI: 35.1 µM
NCI-H23 lung
  TGI: 34.2 µM
